Reference: patent publication US20230192598A1, “NOVEL MODIFIED TETRACYCLINES FOR TREATMENT OF ALCOHOL USE DISORDER, PAIN AND OTHER DISORDERS INVOLVING POTENTIAL INFLAMMATORY PROCESSES” (Texas Tech University System, priority 2020, published 2023)
Entries after “also recorded” stand apart in the source; their conditions may differ.

Experiments:
[1] = cited from earlier work
[2] = tested on: AUD traits; conditions: seven tetracyclines tested (Syapin et al. 2016); cited from earlier work
[3] = tested on: E. coli cell culture; assay: Antibacterial efficacy of CMM ether analogs (ZOI and CFU assays, Example 2); assay type: cell-based; conditions: for Anti-microbial action: Table 3
Description: (§1) Purity and molecular formula verification of the CMM analogs were done using High Performance Liquid Chromatography (HPLC) Nuclear Magnetic Resonance spectroscopy (NMR) and Liquid Chromatography-Mass Spectrometry (LC-MS) after initial identification via Thin-layer Chromatography (TLC). Zone of inhibition (ZOI) and colony forming unit (CFU) assays were used to assess the antibacterial efficacy of our CMM analogs in E. coli cell culture. Drinking-in-the-Dark (DID) and Two-Bottle Choice (2BC) procedures were utilized in both female and male C57BL/6J mice to evaluate ethanol and water consumption. […] Butyl ether minocycline may be used for an AUD treatment.

[4] = tested on: C57BL/6J mice; assay: Drinking in the Dark (DID) model of AUD, ethanol consumption; assay type: in vivo; conditions: for % DID: Table 3, ↓ = decrease of alcohol consumption; for reduction of ethanol consumption: by gavage, compared with i.p.
Description: FIGS. 5A to 5C show, 5A) CMMs reduced acute ethanol consumption in the Drinking in the Dark model of AUD. MINO, DeDiAc, and TRI reduced ethanol consumption by over 50% by intraperitoneal injection (Left). […] 5B) Dose response curve for DeDIAc in female mice by gavage. 5C) Dose response curve for DeDIAc in male mice by gavage. MINO=minocycline, BeMAc=Butyl ether monoacetate minocycline, DeDiAc=De amino di acetyl minocycline, TRI=Tri acetyl minocycline. *p<0.05 compared to controls.
as §1

[5] = tested on: E. coli; assay: Colony forming unit assay, antibacterial; assay type: cell-based; conditions: 24 hour cell culture
Description: (§2) MINO=minocycline, BeMAc=Butyl ether monoacetate minocycline, DeDiAc=De amino di acetyl minocycline, TRI=Tri acetyl minocycline.
as §1

[6] = tested on: E. coli; assay: Zone of inhibition assay; assay type: cell-based; conditions: 24 hour cell culture
Description: as §2, §1

[7] = butyl ether minocycline 100 mg/kg, i.p.

In the case of `C[C@H]1c2cccc(O)c2C(=O)C2=C(O)[C@]3(O)C(=O)C(C(N)=O)=C(O)[C@@H](N(C)C)[C@@H]3[C@@H](O)[C@@H]21` [Doxycycline], the LogD [1] is listed as −3.29, the LogP [1] is listed as −0.54 and the “effectiveness against AUD traits” value [2] is listed as “effective”.

With `CN(C)c1ccc(O)c2c1CC1CC3C(N(C)C)C(O)=C(C(N)=O)C(=O)C3(O)C(O)=C1C2=O.Cl` (stereo not drawn) [Minocycline HCl, 4,7-Bis-dimethylamino-3,10,12,12a-tetrahydroxy-1,11-dioxo-1,4,4a,5,5a,6,11,12a-octahydro-naphthacene-2-carboxylic acid amide hydrochloride, reference compound] the Anti-microbial action [3] was greater than 0.125 mg/mL and the “% DID” value [4, 7] was 75%.

In the case of De amino di acetyl minocycline [DeDiAc], the “antibacterial action, colony forming units” value [5] is reported as “loss of antibiotic activity”, the “antibacterial action, zone of inhibition” value [6] is reported as “loss of antibiotic activity” and the “reduction of ethanol consumption” value ([4]; Drinking in the Dark) is reported as “reduced ethanol consumption to a lesser degree”. The “ethanol consumption (in words)” value ([4]; Example 1, Drinking in the Dark, intraperitoneal and oral administration) was “significantly reduced ethanol consumption”.

For `CN(C)[C@@H]1C(O)=C(C(N)=O)C(=O)[C@@]2(O)C(O)=C3C(=O)c4c(O)ccc(Cl)c4[C@@H](O)[C@H]3C[C@@H]12` [Demeclocycline], the LogD [1] is given as −3.40 and the LogP [1] is given as −1.07.

In the case of `CN(C)c1cc(NC(=O)CNC(C)(C)C)c(O)c2c1C[C@H]1C[C@H]3[C@H](N(C)C)C(O)=C(C(N)=O)C(=O)[C@@]3(O)C(O)=C1C2=O` [Tigecycline], the LogD [1] is listed as −2.73, the LogP [1] is listed as −1.30 and the “effectiveness against AUD traits” value [2] is listed as “effective”.

For `CCOc1ccc(N(C)C)c2c1C(=O)C1=C(O)C3(O)C(=O)C(C(N)=O)=C(O)C(N(C)C)C3CC1C2.Cl` (stereo not drawn) [Ethyl Ether Minocycline HCl, 4,7-Bis-dimethylamino-10-ethoxy-3,12,12a-trihydroxy-1,11-dioxo-1,4,4a,5,5a,6,11,12a-octahydro-naphthacene-2-carboxylic acid amide hydrochloride], the Anti-microbial action [3] was greater than 2 mg/mL and the “% DID” value [4, 7] was 50%.

In the case of `COc1ccc(N(C)C)c2c1C(=O)C1=C(O)C3(O)C(=O)C(C(N)=O)=C(O)C(N(C)C)C3CC1C2.Cl` (stereo not drawn) [Methyl Ether Minocycline HCl, 4,7-Bis-dimethylamino-3,12,12a-trihydroxy-10-methoxy-1,11-dioxo-1,4,4a,5,5a,6,11,12a-octahydro-naphthacene-2-carboxylic acid amide hydrochloride], the Anti-microbial action [3] is reported as greater than 16 mg/mL and the “% DID” value [4, 7] is reported as 40%.

For `CCCCOc1ccc(N(C)C)c2c1C(=O)C1=C(O)C3(O)C(=O)C(C(N)=O)=C(O)C(N(C)C)C3CC1C2.Cl` (stereo not drawn) [Butyl Ether Minocycline HCl, 10-Butoxy-4,7-bis-dimethylamino-3,12,12a-trihydroxy-1,11-dioxo-1,4,4a,5,5a,6,11,12a-octahydro-naphthacene-2-carboxylic acid amide hydrochloride], the “antibiotic / antimicrobial activity (in words)” value ([3]; Example 2, compared to minocycline) was “lost antibiotic activity”, the Anti-microbial action [3] was “ND 64 mg/ml” and the “alcohol consumption (in words)” value ([4]; Example 2, butyl ether minocycline 100 mg/kg, i.p., hydrochloride) was “significantly reduced alcohol consumption; also recorded: greatest reduction in alcohol consumption”. The “% DID” value [4, 7] was 85%.

For `CN(C)[C@@H]1C(O)=C(C(N)=O)C(=O)[C@@]2(O)C(O)=C3C(=O)c4c(O)cccc4[C@@](C)(O)[C@H]3[C@H](O)[C@@H]12` [Oxytetracycline], the LogD [1] is given as −4.25 and the LogP [1] is given as −1.5.

In the case of `CN(C)c1ccc(O)c2c1C[C@H]1C[C@H]3[C@H](N(C)C)C(=O)C(C(N)=O)=C(O)[C@@]3(O)C(=O)C1=C2O` [Minocycline, reference compound], the “effectiveness against AUD traits” value [2] is given as “effective” and the “reduction of ethanol consumption” value ([4]; Drinking in the Dark) is given as “reduced ethanol consumption to a lesser degree”.

For “Butyl ether monoacetate minocycline [BeMAc]”, the “reduction of ethanol consumption” value ([4]; Drinking in the Dark) was “reduced ethanol consumption to a lesser degree”.

With `CCCOc1ccc(N(C)C)c2c1C(=O)C1=C(O)C3(O)C(=O)C(C(N)=O)=C(O)C(N(C)C)C3CC1C2.Cl` (stereo not drawn) [Propyl Ether Minocycline HCl, 4,7-Bis-dimethylamino-3,12,12a-trihydroxy-1,11-dioxo-10-propoxy-1,4,4a,5,5a,6,11,12a-octahydro-naphthacene-2-carboxylic acid amide hydrochloride] the Anti-microbial action [3] was greater than 4 mg/mL and the “% DID” value [4, 7] was 50%.

With Tri acetyl minocycline the “reduction of ethanol consumption” value ([4]; Drinking in the Dark) was “reduced ethanol consumption to a lesser degree”.
